This is an account of results in ChEMBL document CHEMBL5370604, “Identification of Micrococcin P2-Derivatives as Antibiotic Candidates against Two Gram-Positive Pathogens” (J Med Chem, 2023).

A word on the MIC: it is the smallest concentration in the dilution series that meets the test's criterion for growth inhibition.

For data set [1], the system named is Clostridioides difficile. In words: Antibacterial activity against Clostridioides difficile RT017/ST37/A-B+ assessed as inhibition of bacterial growth measured after 24 hrs by CLSI based broth dilution method. In kind it is functional. Background: Broth dilution looks for growth in wells or tubes with falling amounts of substance.
Data set [2] has as its system Clostridioides difficile. As to the kind of experiment: Antibacterial activity against Clostridioides difficile RT027/ST1/A+B+CDT+ assessed as inhibition of bacterial growth measured after 24 hrs by CLSI based broth dilution method. In kind it is functional.
The subject of data set [3] is Clostridioides difficile. As to the kind of experiment: Antibacterial activity against Clostridioides difficile NT/ST221/A+B+CDT+ assessed as inhibition of bacterial growth measured after 24 hrs by CLSI based broth dilution method. In kind it is functional.
The subject of data set [4] is Clostridioides difficile. In words: Antibacterial activity against Clostridioides difficile RT130/ST5/A+B+CDT+ assessed as inhibition of bacterial growth measured after 24 hrs by CLSI based broth dilution method. In kind it is functional.
Data set [5] concerns Clostridioides difficile. In words: Antibacterial activity against Clostridioides difficile NT/ST67/A+B+CDT+ assessed as inhibition of bacterial growth measured after 24 hrs by CLSI based broth dilution method. In kind it is functional.
The subject of data set [6] is Clostridioides difficile. As to the kind of experiment: Antibacterial activity against Clostridioides difficile RT001/ST3/A+B+ assessed as inhibition of bacterial growth measured after 24 hrs by CLSI based broth dilution method. In kind it is functional.
In data set [7] the test system is Clostridioides difficile. As to the kind of experiment: Antibacterial activity against Clostridioides difficile RT078/ST11/A+B+CDT+ assessed as inhibition of bacterial growth measured after 24 hrs by CLSI based broth dilution method. In kind it is functional.
Data set [8] concerns Clostridioides difficile. As to the kind of experiment: Antibacterial activity against Clostridioides difficile RT014/ST14/A+B+ assessed as inhibition of bacterial growth measured after 24 hrs by CLSI based broth dilution method. In kind it is functional.
Data set [9] in a line: Toxicity in colitis-induced C57BL/6J mouse infected with Clostridioides difficile ribotype 027 assessed as increase in Escherichia proportion in gut at 30 mg/kg, po qd pretreated with clindamycin followed by infected with […] and measured on day 20 post treatment by RNA sequencing analysis (reference value: 0%). In kind it is organism-based. The note with it: in vivo, 480 h, time 20 day.

The test system of data set [10] is Clostridioides difficile. In words: Antibacterial activity against Clostridioides difficile ribotype 027 infected in colitis induced C57BL/6J mouse assessed as increase in survival rate without recurrence at 30 mg/kg, po qd pretreated with clindamycin followed by […] infection and compound addition measured on day 15 to day 19. In kind it is functional, organism-based. The note with it: time 15-19 day.

Data set [11] can be described thus: Toxicity in colitis-induced C57BL/6J mouse infected with Clostridioides difficile ribotype 027 assessed as increase in Klebsiella proportion in gut at 30 mg/kg, po qd pretreated with clindamycin followed by infected with […] and measured on day 6 post treatment by RNA sequencing analysis (reference value: 0%). The note with it: in vivo, 144 h, time 6 day. In kind it is organism-based.

Data set [12] has as its system Clostridioides difficile. As to the kind of experiment: Antibacterial activity against Clostridioides difficile ATCC 43255 assessed as inhibition of bacterial growth measured after 24 hrs by CLSI based broth dilution method. In kind it is functional.
For data set [13], the system named is Clostridioides difficile. As to the kind of experiment: Antibacterial activity against Clostridioides difficile ribotype 027 infected in colitis induced C57BL/6J mouse assessed as survival rate at 30 mg/kg, po qd pretreated with clindamycin followed by […] infection and compound addition measured on day 5. In kind it is functional. The note with it: ribotype 027, 120 h, time 5 day.

The subject of data set [14] is Clostridioides difficile. As to the kind of experiment: Antibacterial activity against Clostridioides difficile ribotype 027 infected in colitis induced C57BL/6J mouse assessed as increase in survival rate without recurrence at 30 mg/kg, po qd pretreated with clindamycin followed by […] infection and compound addition measured on day 5. In kind it is functional. The note with it: time 5 day.

The nature of data set [15]: Toxicity in colitis-induced C57BL/6J mouse infected with Clostridioides difficile ribotype 027 assessed as increase in Enterococcus proportion in gut at 30 mg/kg, po qd pretreated with clindamycin followed by infected with […] and measured on day 6 post treatment by RNA sequencing analysis (reference value: 0%). In kind it is organism-based. The note with it: in vivo, 144 h, time 6 day.

For data set [16], the system named is Clostridioides difficile. In words: Antibacterial activity against Clostridioides difficile RT018/ST17/A+B+ assessed as inhibition of bacterial growth measured after 24 hrs by CLSI based broth dilution method. In kind it is functional.
For data set [17], the system named is Clostridioides difficile. In words: Antibacterial activity against Clostridioides difficile RT002/ST8/A+B+ assessed as inhibition of bacterial growth measured after 24 hrs by CLSI based broth dilution method. In kind it is functional.
Data set [18] is described as follows: Toxicity in colitis-induced C57BL/6J mouse infected with Clostridioides difficile ribotype 027 assessed as increase in Escherichia proportion in gut at 30 mg/kg, po qd pretreated with clindamycin followed by infected with […] and measured on day 6 post treatment by RNA sequencing analysis (reference value: 0%). In kind it is organism-based. The note with it: in vivo, 144 h, time 6 day.

The test system of data set [19] is Clostridioides difficile. In words: Antibacterial activity against Clostridioides difficile RT012/ST54/A+B+ assessed as inhibition of bacterial growth measured after 24 hrs by CLSI based broth dilution method. In kind it is functional.
Data set [20] relates to Clostridioides difficile. In words: Antibacterial activity against Clostridioides difficile RT015/ST35/A+B+ assessed as inhibition of bacterial growth measured after 24 hrs by CLSI based broth dilution method. In kind it is functional.
Data set [21] is described as follows: Toxicity in colitis-induced C57BL/6J mouse infected with Clostridioides difficile ribotype 027 assessed as increase in Enterococcus proportion in gut at 30 mg/kg, po qd pretreated with clindamycin followed by infected with […] and measured on day 20 post treatment by RNA sequencing analysis (reference value: 0%). In kind it is organism-based. The note with it: in vivo, 480 h, time 20 day.

For data set [22], the system named is Clostridioides difficile. As to the kind of experiment: Antibacterial activity against Clostridioides difficile RT293/ST129/A+B+ assessed as inhibition of bacterial growth measured after 24 hrs by CLSI based broth dilution method. In kind it is functional.
The nature of data set [23]: Toxicity in colitis-induced C57BL/6J mouse infected with Clostridioides difficile ribotype 027 assessed as increase in Klebsiella proportion in gut at 30 mg/kg, po qd pretreated with clindamycin followed by infected with […] and measured on day 20 post treatment by RNA sequencing analysis (reference value: 0%). In kind it is organism-based. The note with it: in vivo, 480 h, time 20 day.

The test system of data set [24] is Staphylococcus aureus. As to the kind of experiment: In vivo antibacterial activity against methicillin-resistant Staphylococcus aureus KCCM 40511 ATCC 33593 infected in soft-skin tissue BALB/c mouse infection model assessed as downregulation of IL-1beta levels in wound area treated as ointment administered twice at 6 and 12 hrs and measured after 24 hrs by ELISA assay. In kind it is functional, organism-based. (In general: An ELISA detects its analyte on a solid surface through an enzyme-linked reagent.)

The test system of data set [25] is Staphylococcus aureus. In words: In vivo antibacterial activity against methicillin-resistant Staphylococcus aureus KCCM 40511 ATCC 33593 infected in soft-skin tissue BALB/c mouse infection model assessed as downregulation of IL-6 levels in wound area treated as ointment administered twice at 6 and 12 hrs and measured after 24 hrs by ELISA assay. In kind it is functional, organism-based.

Each structure is given as a SMILES string. Values after ≈ are worked out from the molar mass of the structure shown. Active and inactive are the calls of the source.

With `CN[C@H](CC(C)C)C(=O)N[C@H]1C(=O)N[C@@H](CC(N)=O)C(=O)N[C@H]2C(=O)N[C@H]3C(=O)N[C@H](C(=O)N[C@H](C(=O)O)c4cc(O)cc(O)c4-c4cc3ccc4O)[C@H](O)c3ccc(c(Cl)c3)Oc3cc2cc(c3O[C@@H]2O[C@H](CO)[C@@H](O)[C@H](O)[C@H]2O[C@H]2C[C@](C)(N)[C@H](O)[C@H](C)O2)Oc2ccc(cc2Cl)[C@H]1O` [VANCOMYCIN], the MIC in [1] is 0.5 µg/mL (≈ 0.345 µM); in data set [2] it was 1 µg/mL (≈ 0.69 µM); in [3] it was 2 µg/mL (≈ 1.38 µM); in data set [4], 1 µg/mL (≈ 0.69 µM); in data set [5], 2 µg/mL (≈ 1.38 µM); in data set [6], 1 µg/mL (≈ 0.69 µM). In addition, the MIC in [7], in data set [8], in data set [12], in data set [16], in data set [17] and in data set [19] was 1 µg/mL (≈ 0.69 µM) each time. Also, the MIC in data set [20] was found to be 0.5 µg/mL (≈ 0.345 µM); in data set [22], 1 µg/mL (≈ 0.69 µM). Also, the Activity is 5.22% in [9]; 8.78% in data set [11]; 30% in data set [14]; 0% in data set [15]; 24.55% in data set [18]; 21.53% in data set [21]. Further, the Activity in data set [23] is 1.39%. The outcome in data set [10] was inactive. Also, in data set [13], the survival at 30 mg/kg is 40%.
On to `C/C=C(\NC(=O)c1csc(-c2csc(-c3ccc4c(n3)-c3csc(n3)[C@H]([C@@H](C)O)NC(=O)c3csc(n3)[C@H](C(C)C)NC(=O)c3csc(n3)/C(=C/C)NC(=O)[C@H]([C@@H](C)O)NC(=O)c3csc-4n3)n2)n1)C(=O)NCCN1CCN(C(C)C)CC1`, for which the outcome in data set [24] and in data set [25] was Active.
